US20050250093A1, “Hepatitis c virus sub-genomic replicons” (priority 2002, published 2005)

How the values were obtained:
Huh-7 cells [1] = experiment: Stable replication / G418 resistance after electroporation of replicon RNA into Huh-7 cells; format: cell-based, human; settings: replicon RNA prepared in vitro, G418 selection
Experimental: In the present invention, certain chimeric replicon constructs were generated from pHCVrep1b(BB7) with sequences substituted with either type 1aHCV H77 sequence or by HCV type 1b J4 strain sequence. […] The methods for constructing these replicons are described herein.
RNA transcribed from the above replicon DNA was electroporated into Huh-7 cells according to the procedures in the examples. G418 resistant cells were obtained by incubating the cells in G418-containing media. Once the cells were amplified, total cellular protein was separated on SDS-PAGE and probed by NS5A serum to assess whether HCV proteins were expressed. As predicted, all three replicon cell lines expressed NS5A as shown on figure. Genomic DNA and RNA were also isolated from each replicon cell lines. PCR reactions on genomic DNA were carried out to assess the possibility that the G418 resistance was due to expression of the phosphatransferase from integrated neo resistant gene into the Huh-7 cell genome. […] Therefore, the date indicate that it is unlikely that the resistance is due to integration of residue DNA in our RNA preparation into the genome of Huh-7 cells.
Five […]g of replicon RNA was electroporated into 5×10^6 cells of the hepatoma cell line, Huh-7. […] Huh-7 cells were pelleted, washed, counted and resuspended to a final concentration of 1×10^7 cells/ml in Opti-MEM media (Invitrogen). […]

Huh-7 cells [2] = experiment: Analysis of replicon copy number by TaqMan; format: cell-based, human; settings: real-time PCR with primers and probes in the neo gene on total RNA from replicon cells
Experimental: Next, replicon RNA was quantified by TaqMan. Real-time PCR was conducted with primers and probes in the neo gene on total RNA isolated from the replicon cells and on standard neo containing DNA. Copy numbers of the replicon were calculated based on standard curve generated from known amount of in vitro transcribed RNA. J4 M/S contained about 147 copies/cell, BB7-F1 contained 57 copies/cell, HCV 1a replicon has 165 copies/cell, BB7/H77NS5B has 29 copies/cell. For a positive control, HCV BB7 replicon that has 1500 copies/cell while Huh-7 cells served as negative controls.
Cells were trypinized and counted to determine cell number. The total cellular RNA was isolated using RNeasy Mini Kit (Qiagen) following the manufacturer's protocol. The RNA was stored at −80° C. or assayed by TaqMan quantitative RT-PCR. For analysis by TaqMan PCR, a master mix was prepared using TaqMan EZ RT-PCR Kit (Applied Biosystems #403028), TaqMan PDAR Control Reagent Human Cyclophilin (Applied Biosystems #4310883E), custom primer Neo^R fwd CCG GCT ACC TGC CCA TTC [SEQ ID NO:28] […] Data was analyzed by leaving the baseline to default level on both layers, and set a threshold to an equal value for both dye layers. […] The copy number for each replicon sample was calculated by taking the sample's Ct value, minus the line intercept, divided by the slope of the line.

type 1a replicon system = experiment: Susceptibility of the type 1a replicon system to interferon and antiviral agents; format: cell-based, HCV; settings: type 1a replicon vs type 1b replicon system

| Substance | generation of stable cell lines / stable replication after transfection into Huh-7 cells (Huh-7 cells [1]) | replicon copy number (Huh-7 cells [2]) | susceptibility compared with the type 1b replicon system (type 1a replicon system) |
| --- | --- | --- | --- |
| HCV 1a replicon | able to stably replicate and confer resistance to G418 | 165 copies/cell | – |
| interferon | – | – | similar |
